Patent US20210139484A1, “DIHYDROISOQUINOLINE-2(1H)-CARBOXAMIDE AND RELATED COMPOUNDS AND THEIR USE IN TREATING MEDICAL CONDITIONS” (GOSSAMER BIO SERVICES, INC., priority 2018, published 2021)

target: T1, human HPK1 protein (Homo sapiens, UniProt Q92918); assay: Human HPK1 protein TR-FRET assay; format: biochemical; details: 1 mM ATP, Table 19
T1 construct: recombinant human HPK1 protein (a.a. 1-346) was expressed in Sf9 insect cells; GST (N); purchased Signalchem M23-11G; host or cells: Sf9 insect cells (baculovirus)
T1 sequence (Q92918 1-346): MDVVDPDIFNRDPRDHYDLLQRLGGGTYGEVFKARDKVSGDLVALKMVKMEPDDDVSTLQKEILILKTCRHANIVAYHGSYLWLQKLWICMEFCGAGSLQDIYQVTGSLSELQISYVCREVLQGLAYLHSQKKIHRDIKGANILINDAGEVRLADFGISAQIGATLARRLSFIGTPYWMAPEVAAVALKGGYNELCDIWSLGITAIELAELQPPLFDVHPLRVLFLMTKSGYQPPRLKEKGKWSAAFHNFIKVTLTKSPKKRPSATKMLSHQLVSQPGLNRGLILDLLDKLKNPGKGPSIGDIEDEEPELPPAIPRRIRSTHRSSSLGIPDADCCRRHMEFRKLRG
Summary of the method: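 Read-out was TR-FRET using Eu-labeled anti-phospho-CREB (Ser133) antibody, with the 665/615 nm signal ratio normalised to DMSO-only wells and fitted by a 4-parameter logistic model for IC50. Reactions held 10 nM Sf9-expressed GST-HPK1 (a.a. 1-346), 100 nM CREBtide and 1 mM ATP, run 60 minutes at room temperature, pH 7.5.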

| SMILES | IC50 [µM] |
| --- | --- |
| Cc1cc2c(Oc3ccc4c(c3)[C@H](C)N(C(=O)Nc3cnc(Oc5ccncc5)c(C(F)(F)F)c3)CC4)ccnc2[nH]1 [VI-14] | 5 to 10 |
| CCN1CCN(Cc2ccc(NC(=O)N3CCc4ccc(Oc5ccnc6[nH]c(CCOC)cc56)cc4[C@@H]3C)cc2C(F)(F)F)CC1 [V-25] | < 0.5 |
| CCN1CCN(Cc2ccc(NC(=O)N3CCc4ccc(Oc5ccnc6[nH]ccc56)cc4[C@@H]3C)cc2C(F)F)CC1 [V-4] | < 0.5 |
| CCN1CCN(Cc2ccc(NC(=O)N3Cc4cc(Oc5ccnc6[nH]c(C)cc56)cnc4C(C)C3)cc2C(F)(F)F)CC1 (stereo not shown) [VII-3] | < 0.5 |
| Cc1cc2c(Oc3ccc4c(c3)[C@H](C)N(C(=O)Nc3cnc(NC5CCN(C)CC5)c(C(F)(F)F)c3)CC4)ccnc2[nH]1 [VI-7] | < 0.5 |
| CCN1CCN(Cc2ccc(NC(=O)N3CCc4cc(F)c(Oc5ccnc6[nH]ccc56)cc4C3)cc2C(F)(F)F)CC1 [compound 3, 7-((1H-Pyrrolo[2,3-b]pyridin-4-yl)oxy)-N-(4-((4-ethylpiperazin-1-yl)methyl)-3-(trifluoromethyl)phenyl)-6-fluoro-3,4-dihydroisoquinoline-2(1H)-carboxamide] | < 0.5 |
| CCN1CCN(Cc2ccc(NC(=O)N3CCc4ccc(Oc5ccnc6[nH]ccc56)cc4[C@@H]3C)cc2Cl)CC1 [V-3] | < 0.5 |
| C[C@H]1c2cc(Oc3ccnc4[nH]ccc34)ccc2CCN1C(=O)Nc1ccc(CN2CCN(C)CC2)c(C(F)(F)F)c1 [V-2] | < 0.5 |
| CCN1CCN(Cc2ccc(NC(=O)N3CC(C)c4ccc(Oc5ccnc6[nH]ccc56)cc4[C@@H]3C)cc2C(F)(F)F)CC1 (stereo partly shown) [X-4] | > 10 |
| Cc1cc2c(Oc3ccc4c(c3)[C@H](C)N(C(=O)Nc3cnc(OC5CCN(C)CC5O)c(C(F)(F)F)c3)CC4)ccnc2[nH]1 (stereo in doubt) [VI-9] | 0.5 to 5 |
| CCc1cc2c(Oc3ccc4c(c3)[C@H](C)N(C(=O)Nc3ccc(CN5CCN(CC)CC5)c(C(F)(F)F)c3)CC4)ccnc2[nH]1 [V-22] | < 0.5 |
| CN1CCC(Oc2ccc(NC(=O)N3CCc4ccc(Oc5ccnc6[nH]ccc56)cc4C3)cc2C(F)(F)F)CC1 [III-11] | < 0.5 |
| CCN1CCN(Cc2ccc(NC(=O)N3CCc4ccc(Oc5ncnn6cccc56)cc4C3)cc2C(F)(F)F)CC1 [compound 1, N-[4-[(4-Ethylpiperazin-1-yl)methyl]-3-(trifluoromethyl)phenyl]-7-[pyrrolo[2,1-f][1,2,4]triazin-4-yloxy]-1,2,3,4-tetrahydroisoquinoline-2-carboxamide] | < 0.5 |
| Cc1cc2c(Oc3ccc4c(c3)CN(C(=O)Nc3cnc(OC5CCN(C)CC5)c(C(F)(F)F)c3)CC4C)ccnc2[nH]1 (single isomer, unassigned) [IV-39] | < 0.5 |
| CCN1CCN(Cc2ccc(NC(=O)N3CCc4ccc(Oc5ncnn6cc(C)cc56)cc4C3)cc2C(F)(F)F)CC1 [II-7] | < 0.5 |
| CCN1CCN(Cc2ccc(NC(=O)N3CCc4ncc(Oc5ccnc6[nH]ccc56)cc4C3C)cc2C(F)(F)F)CC1 (stereo not shown) [compound 9, 3-((1H-pyrrolo[2,3-b]pyridin-4-yl)oxy)-N-(4-((4-ethylpiperazin-1-yl)methyl)-3-(trifluoromethyl)phenyl)-5-methyl-7,8-dihydro-1,6-naphthyridine-6(5H)-carboxamide] | < 0.5 |

same assay, conditions: 1 mM ATP, Table 20

| SMILES | IC50 [µM] |
| --- | --- |
| CCN1CCN(Cc2ccc(NC(=O)N3Cc4cc(Oc5ccnc6[nH]ccc56)cnc4[C@H](C)C3)cc2C(F)(F)F)CC1 [XI-11] | < 0.5 |
| C[C@@H]1Cc2ccc(Oc3c(F)cnc4[nH]c(-c5cnn(C)c5)cc34)cc2CN1C(=O)Nc1ccc(CN2CCN(C)CC2)c(C(F)(F)F)c1 [XVI-4] | < 0.5 |
| C[C@H]1CN(C(=O)Nc2ccc(CN3CCN(C)CC3)c(C(F)(F)F)c2)Cc2cc(Oc3c(F)cnc4[nH]c(CO)cc34)ccc21 [XV-38] | < 0.5 |
| CC[C@H]1CN(C(=O)Nc2ccc(CN3CCNCC3)c(C(F)(F)F)c2)Cc2cc(Oc3c(F)cnc4[nH]c(C(=O)N(C)C)cc34)cnc21 [XIV-145] | < 0.5 |
| CN1CCN(Cc2ccc(NC(=O)N3CCc4ccc(Oc5c(F)cnc6[nH]c(-c7cccnc7)cc56)cc4C3)cc2C(F)(F)F)CC1 [XII-7] | < 0.5 |
| CCN1CCN(Cc2ccc(NC(=O)N3Cc4cc(Oc5ccnc6[nH]c(=O)[nH]c56)cnc4C(C)C3)cc2C(F)(F)F)CC1 (single isomer, unassigned) [XIV-12] | < 0.5 |
| C[C@@H]1Cc2ccc(Oc3ccnc4[nH]c(C5(O)CC5)cc34)cc2CN1C(=O)Nc1ccc(CN2CCN(C)CC2)c(C(F)(F)F)c1 [XVI-2] | < 0.5 |
| Cc1cc2c(Oc3cnc4c(c3)CN(C(=O)Nc3ccc(CN5CCN(C)CC5)c(C(F)(F)F)c3)C[C@@H]4C)ccnc2[nH]1 [XIV-90] | < 0.5 |
| C[C@H]1CN(C(=O)Nc2ccc(CN3CCN(C)CC3)c(C(F)(F)F)c2)Cc2cc(Oc3ccnc4[nH]c(C5(O)CC5)cc34)cnc21 [XIV-97] | < 0.5 |
| CC[C@H]1CN(C(=O)Nc2cc(C(F)(F)F)c(CN3CCN(C)CC3)cc2F)Cc2cc(Oc3ccnc4[nH]c(C(=O)N(C)C)cc34)cnc21 [XIV-137] | < 0.5 |
| CCC1CN(C(=O)Nc2ccc(CN3CCN(CC)CC3)c(C(F)(F)F)c2)Cc2cc(Oc3ccnc4[nH]c(-c5cnn(C)c5)cc34)cnc21 (stereo not shown) [XIV-54] | < 0.5 |
| CC[C@@H]1CN(C(=O)Nc2ccc(CN3CCNCC3)c(C(F)(F)F)c2)Cc2cc(Oc3ccnc4[nH]c(CO)cc34)ccc21 [XV-4] | < 0.5 |
| C[C@H]1CN(C(=O)Nc2ccc(CN3CCN(C)CC3)c(C(F)(F)F)c2)Cc2cc(Oc3ccnc4[nH]c(C5CC5)cc34)cnc21 [XIV-81] | < 0.5 |
| CCN1CCN(Cc2ccc(NC(=O)N3Cc4cc(Oc5ccnc6[nH]c(C)nc56)cnc4C(C)C3)cc2C(F)(F)F)CC1 (single isomer, unassigned) [XIV-27] | 5 to 10 |
| CCN1CCN(Cc2ccc(NC(=O)N3CCc4ncc(Oc5ccnc6[nH]ccc56)cc4[C@@H]3C)cc2C(F)(F)F)CC1 [XI-3] | < 0.5 |
| C[C@H]1CN(C(=O)Nc2ccc(CN3CCN(C)CC3)c(C(F)(F)F)c2)Cc2cc(Oc3c(F)cnc4[nH]c(-c5cnn(C)c5)cc34)ccc21 [XII-12] | < 0.5 |
| CC[C@H]1CN(C(=O)Nc2ccc(CN3CCN(CC)CC3)c(C(F)(F)F)c2)Cc2cc(Oc3ccnc4[nH]c(C5(O)CC5)cc34)cnc21 [XIV-79] | < 0.5 |
| CCN1CCN(Cc2ccc(NC(=O)N3Cc4cc(Oc5ncnc6[nH]c(C)cc56)cnc4[C@@H](C)C3)cc2C(F)(F)F)CC1 [XI-6] | < 0.5 |

| SMILES | IC50 [µM] |
| --- | --- |
| CCN1CCN(Cc2ccc(NC(=O)N3Cc4cc(Oc5ccnc6[nH]c(=O)cnc56)cnc4C(C)C3)cc2C(F)(F)F)CC1 (single isomer, unassigned) [XIV-7] | 0.5 to 5 |
| Cn1cc(-c2cc3c(Oc4ccc5c(c4)CN(C(=O)Nc4ccc(CN6CCN(CCO)CC6)c(C(F)(F)F)c4)CC5)c(F)cnc3[nH]2)cn1 [XII-14] | < 0.5 |
| CCN1CCN(Cc2ccc(NC(=O)N3Cc4cc(Oc5ccnc6[nH]c(C)cc56)c(C)nc4C(C)C3)cc2C(F)(F)F)CC1 (stereo not shown) [XVIII-2] | < 0.5 |
| CC[C@H]1CN(C(=O)Nc2ccc(CN3CCN(CC(F)F)CC3)c(C(F)(F)F)c2)Cc2cc(Oc3ccnc4[nH]c(C(=O)N(C)C)cc34)cnc21 [XIV-139] | 0.5 to 5 |
| C[C@H]1CN(C(=O)Nc2ccc(CN3CCN(C)CC3)c(C(F)(F)F)c2)Cc2cc(Oc3ccnc4[nH]c(C(N)=O)cc34)ccc21 [XV-31] | < 0.5 |
| CC[C@H]1CN(C(=O)Nc2ccc(CN3CCN(C)CC3)c(C(F)(F)F)c2)Cc2cc(Oc3ccnc4[nH]c(C(N)=O)cc34)cnc21 [XIV-84] | < 0.5 |
| C[C@@H]1CN(C(=O)Nc2ccc(CN3CCN(C)CC3)c(C(F)(F)F)c2)Cc2cc(Oc3ccnc4[nH]c(CO)cc34)cnc21 [XIV-75] | < 0.5 |
| CC[C@@H]1Cc2ncc(Oc3ccnc4[nH]ccc34)cc2CN1C(=O)Nc1ccc(CN2CCN(CC)CC2)c(C(F)(F)F)c1 [XVIII-17] | < 0.5 |
| CC[C@H]1CN(C(=O)Nc2ccc(CN3CCNCC3)c(C(F)(F)F)c2)Cc2cc(Oc3ccnn4cc(C(=O)N(C)C)cc34)cnc21 [XIV-124] | < 0.5 |
| CCN1CCN(Cc2ccc(NC(=O)N3Cc4cc(Oc5ccnc6c5CCC(=O)N6)cnc4C(C)C3)cc2C(F)(F)F)CC1 (single isomer, unassigned) [XIV-1] | < 0.5 |
| CC[C@@H]1CN(C(=O)Nc2ccc(CN3CCN(C)CC3)c(C(F)(F)F)c2)Cc2cc(Oc3ccnc4[nH]c(C5CC5)cc34)cnc21 [XIV-73] | < 0.5 |
| CCN1CCN(Cc2ccc(NC(=O)N3CCc4ccc(Oc5c(F)cnc6[nH]c(-c7cnn(C)c7)cc56)cc4C3)cc2C(F)(F)F)CC1 [XII-15] | < 0.5 |
| C[C@@H]1Cc2ccc(Oc3c(F)cnc4[nH]c(-c5cnn(C)c5)cc34)cc2CN1C(=O)Nc1cnc(CN2CCN(C)CC2)c(C(F)(F)F)c1 [XVI-5] | < 0.5 |
| CC[C@H]1CN(C(=O)Nc2ccc(CN3CCN(CCO)CC3)c(C(F)F)c2)Cc2cc(Oc3ncnc4[nH]c(C5CC5)cc34)ccc21 [XV-2] | < 0.5 |
| CN1CC[C@@H](Oc2ncc(NC(=O)N3CCc4ccc(Oc5c(F)cnc6[nH]c(-c7cnn(C)c7)cc56)cc4C3)cc2C(F)(F)F)[C@@H](O)C1 [XII-4] | < 0.5 |
| CCN1CCN(Cc2ccc(NC(=O)N3CCc4ccc(-c5ccc6cc(NC)ncc6c5)cc4C3)cc2C(F)(F)F)CC1 [XI-1] | 0.5 to 5 |
| CC[C@H]1CN(C(=O)Nc2ccc(CN3CCN(C)CC3)c(C(F)(F)F)c2)Cc2cc(Oc3c(F)cnc4[nH]c(C(=O)N(C)C)cc34)cnc21 [XIV-143] | < 0.5 |
| CC[C@@H]1CN(C(=O)Nc2cnc(O[C@H]3CCN[C@@H](C)C3)c(C(F)(F)F)c2)Cc2cc(Oc3ccnc4[nH]c(C)cc34)cnc21 [XIV-71] | 0.5 to 5 |
